Laboratory results: patent publication US11673897B2, “Compounds for the treatment of kinase-dependent disorders” (Exelixis, Inc., priority 2018, dated 2023)

Experiments:
Format in all cases: cell-based
AXL = AXL (Homo sapiens (Human), UniProt P30530); assay: AXL autophosphorylation ELISA in A-172 cells; conditions: cellular, Gas6-stimulated, phospho-AXL ELISA
Protocol: A-172 glioblastoma cells (ATCC #CRL-1620) were seeded at 2.5×10^5 cells/well onto 24-well plates (Greiner #662165), in […] (Thermo Fisher #11995-040) containing 10% FBS (Thermo Fisher #26140-079), […] (Thermo Fisher #11140-050), […] (Thermo Fisher #35050-061), and 1% Penicillin Streptomycin (Thermo Fisher #15140-122). A-172 cells were incubated at 37° C., […] for 24 hand then starved for 24 h in serum-free medium. Test compounds were serially diluted to produce an 8-point dose curve in fresh serum-free medium to a final concentration of 0.3% DMSO (vehicle) and added to the cells and incubated for 1 h. Cells were then stimulated with 1 μg/mL recombinant human Gas6 (R&D Systems #885-GSB-500) for 15 min, washed with cold PBS, and immediately lysed with 150 μL of cold 1× lysis buffer [20 mM Tris, 137 mM sodium chloride, 2 mM EDTA, 10% glycerol, 1% NP-40 alternative, 1 mM activated sodium orthovanadate, 1 mM PefaBloc SC (Sigma-Aldrich #11429868001), protease/phosphatase inhibitor tablet (Thermo Fisher #A32959)]. Lysates were collected and 100 μL/well added into the human phospho-AXL DuoSet IC ELISA (R&D Systems #DYC2228-2). Assay was performed according to manufacturer's instructions and sample phospho-AXL concentrations were extrapolated using human phospho-AXL control (R&D Systems #841645) as a standard. Positive control wells (100% activity) contained Gas6-stimulated, DMSO-treated cell lysates. Negative control wells (0% activity) contained Gas6-stimulated, reference inhibitor-treated cell lysates. IC50 values were calculated by nonlinear regression analysis using a 4-parameter logistic curve fit in ActivityBase XE (IDBS).

Met = Met (Homo sapiens (Human), UniProt P08581); assay: Met autophosphorylation ELISA in PC-3 cells; conditions: cellular, HGF-stimulated, phospho-Met ELISA, read-out: c-Met IC50
Chain of Met (P08581 25-1390): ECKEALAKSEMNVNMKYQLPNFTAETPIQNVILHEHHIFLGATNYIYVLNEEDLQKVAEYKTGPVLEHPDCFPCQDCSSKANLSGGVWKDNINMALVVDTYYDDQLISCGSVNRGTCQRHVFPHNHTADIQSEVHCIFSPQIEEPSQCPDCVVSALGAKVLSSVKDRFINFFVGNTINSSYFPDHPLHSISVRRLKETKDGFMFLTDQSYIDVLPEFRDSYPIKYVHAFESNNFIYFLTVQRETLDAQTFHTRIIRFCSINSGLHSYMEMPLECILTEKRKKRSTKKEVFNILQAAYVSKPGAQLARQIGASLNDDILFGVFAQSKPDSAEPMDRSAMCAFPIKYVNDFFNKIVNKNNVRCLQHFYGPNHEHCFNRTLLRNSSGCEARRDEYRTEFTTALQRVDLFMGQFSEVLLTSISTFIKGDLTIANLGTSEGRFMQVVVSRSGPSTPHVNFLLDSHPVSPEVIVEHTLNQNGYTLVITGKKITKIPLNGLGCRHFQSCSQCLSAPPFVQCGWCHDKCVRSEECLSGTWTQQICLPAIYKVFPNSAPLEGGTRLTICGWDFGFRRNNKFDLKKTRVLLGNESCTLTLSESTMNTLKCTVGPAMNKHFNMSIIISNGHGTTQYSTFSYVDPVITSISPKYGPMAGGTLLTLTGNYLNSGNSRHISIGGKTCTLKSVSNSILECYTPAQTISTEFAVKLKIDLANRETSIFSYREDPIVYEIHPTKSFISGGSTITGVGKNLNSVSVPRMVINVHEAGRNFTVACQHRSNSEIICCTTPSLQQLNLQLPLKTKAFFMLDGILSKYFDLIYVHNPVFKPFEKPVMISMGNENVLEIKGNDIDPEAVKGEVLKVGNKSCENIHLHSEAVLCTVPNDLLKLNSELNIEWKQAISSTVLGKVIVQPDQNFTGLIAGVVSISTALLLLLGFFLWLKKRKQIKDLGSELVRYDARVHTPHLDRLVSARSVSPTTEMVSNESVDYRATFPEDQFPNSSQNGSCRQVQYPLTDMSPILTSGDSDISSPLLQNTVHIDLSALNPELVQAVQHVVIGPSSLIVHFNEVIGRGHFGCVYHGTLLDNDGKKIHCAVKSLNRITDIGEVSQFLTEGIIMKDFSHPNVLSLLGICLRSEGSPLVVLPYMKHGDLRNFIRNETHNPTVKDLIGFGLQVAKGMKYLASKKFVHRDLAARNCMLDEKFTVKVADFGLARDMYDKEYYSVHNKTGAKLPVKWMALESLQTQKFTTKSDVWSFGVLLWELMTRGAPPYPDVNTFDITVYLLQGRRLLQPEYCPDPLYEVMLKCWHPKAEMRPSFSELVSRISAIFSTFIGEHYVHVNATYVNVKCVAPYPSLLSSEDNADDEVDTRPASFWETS
Protocol: PC-3 prostate cancer cells (ATCC #CRL-1435) were seeded at 4×10^4 cells/well onto 24-well plates (Greiner #662165), in DMEM (Thermo Fisher #11995-040) containing 10% FBS (Thermo Fisher #26140-079), 1% MEM NEAA (Thermo Fisher #11140-050), 1% GlutaMax (Thermo Fisher #35050-061), and 1% Penicillin Streptomycin (Thermo Fisher #15140-122). PC-3 cells were incubated at 37° C., 5% CO2 for 24 h and then starved for 3 h in serum-free medium. Test compounds were serially diluted to produce an 8-point dose curve in fresh serum-free medium to a final concentration of 0.3% DMSO (vehicle) and added to the cells and incubated for 1 h. Cells were then stimulated with 100 ng/mL recombinant human HGF (R&D Systems #294-HG-250) for 10 min, washed with cold PBS, and immediately lysed with 130 μL of cold 1× lysis buffer [20 mM Tris, 137 mM sodium chloride, 2 mM EDTA, 10% glycerol, 1% NP-40 alternative, 1 mM activated sodium orthovanadate, 1 mM PefaBloc SC (Sigma-Aldrich #11429868001), and protease/phosphatase inhibitor tablet (Thermo Fisher #A32959)]. Lysates were clarified by centrifugation and 100 μL/well added into the PathScan phospho-Met (panTyr) Sandwich ELISA (Cell Signaling Technology #7333). Assay was performed according to manufacturer's instructions. Positive control wells (100% activity) contained HGF-stimulated, DMSO-treated cell lysates. Negative control wells (0% activity) contained HGF-stimulated, reference inhibitor-treated cell lysates. IC50 values were calculated by nonlinear regression analysis using a 4-parameter logistic curve fit in ActivityBase XE (IDBS).

KDR = KDR (Homo sapiens (Human), UniProt P35968); assay: KDR autophosphorylation ELISA in HUVEC cells; conditions: cellular, VEGF165-stimulated, phospho-KDR ELISA
Chain of KDR (P35968 20-1356): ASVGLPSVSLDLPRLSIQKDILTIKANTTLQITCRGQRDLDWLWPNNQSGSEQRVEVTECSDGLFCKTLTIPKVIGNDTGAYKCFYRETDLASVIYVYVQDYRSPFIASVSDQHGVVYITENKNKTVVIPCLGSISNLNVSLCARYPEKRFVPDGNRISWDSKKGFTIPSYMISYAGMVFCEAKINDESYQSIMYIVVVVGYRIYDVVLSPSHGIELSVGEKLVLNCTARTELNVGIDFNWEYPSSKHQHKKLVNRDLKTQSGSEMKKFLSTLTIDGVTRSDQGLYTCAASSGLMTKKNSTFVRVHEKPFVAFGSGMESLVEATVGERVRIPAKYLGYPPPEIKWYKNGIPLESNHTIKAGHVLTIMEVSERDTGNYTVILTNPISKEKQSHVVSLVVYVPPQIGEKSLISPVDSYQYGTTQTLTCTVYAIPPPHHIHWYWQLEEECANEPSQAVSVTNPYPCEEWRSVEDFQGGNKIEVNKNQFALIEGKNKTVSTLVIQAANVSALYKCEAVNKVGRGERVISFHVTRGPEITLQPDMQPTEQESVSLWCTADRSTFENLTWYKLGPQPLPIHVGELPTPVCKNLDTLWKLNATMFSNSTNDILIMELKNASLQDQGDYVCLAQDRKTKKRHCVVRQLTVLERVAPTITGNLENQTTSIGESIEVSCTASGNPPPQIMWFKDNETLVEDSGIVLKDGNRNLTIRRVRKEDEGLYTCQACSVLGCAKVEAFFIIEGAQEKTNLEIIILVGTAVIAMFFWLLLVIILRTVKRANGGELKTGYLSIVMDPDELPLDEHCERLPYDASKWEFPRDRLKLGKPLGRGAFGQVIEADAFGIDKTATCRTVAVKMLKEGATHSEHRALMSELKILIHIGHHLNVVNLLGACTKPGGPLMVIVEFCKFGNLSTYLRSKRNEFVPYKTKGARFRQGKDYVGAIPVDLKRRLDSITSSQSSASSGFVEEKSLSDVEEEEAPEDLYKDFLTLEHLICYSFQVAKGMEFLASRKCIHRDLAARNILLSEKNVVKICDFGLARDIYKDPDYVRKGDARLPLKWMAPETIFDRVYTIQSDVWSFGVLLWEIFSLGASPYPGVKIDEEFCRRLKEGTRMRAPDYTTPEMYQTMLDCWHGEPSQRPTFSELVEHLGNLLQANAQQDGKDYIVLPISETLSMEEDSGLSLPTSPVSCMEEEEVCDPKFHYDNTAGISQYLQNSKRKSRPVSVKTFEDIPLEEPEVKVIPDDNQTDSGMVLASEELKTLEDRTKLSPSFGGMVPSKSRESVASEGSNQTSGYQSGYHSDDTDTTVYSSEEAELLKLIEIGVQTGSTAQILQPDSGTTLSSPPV
Protocol: Human umbilical vein endothelial cells or HUVEC (Lonza #C2519A) were seeded at 2×10^4 cells/well onto 96-well plates (Corning #3904), in EGM-2 growth medium (Lonza #CC-3162) containing 1% Penicillin Streptomycin (Thermo Fisher #15140-122). HUVEC cells were incubated at 37° C., 5% CO2 for 24 h and then starved for 24 h in serum-free EBM-2 basal medium (Lonza #CC-3156) containing 1% Penicillin Streptomycin. Test compounds were serially diluted to produce an 8-point dose curve in fresh serum-free medium to a final concentration of 0.3% DMSO (vehicle) and added to the cells and incubated for 1 h. Cells were then stimulated with 100 ng/mL recombinant human VEGF165 (R&D Systems #293-VE-500) for 5 min, washed with cold PBS, and immediately lysed with 130 μL of cold 1× lysis buffer [20 mM Tris, 137 mM sodium chloride, 2 mM EDTA, 10% glycerol, 1% NP-40 alternative, 1 mM activated sodium orthovanadate, 1 mM PefaBloc SC (Sigma-Aldrich #11429868001), protease/phosphatase inhibitor tablet (Thermo Fisher #A32959)]. Lysates were collected and 100 μL/well added into the human phospho-KDR DuoSet IC ELISA (R&D Systems #DYC1766-2). Assay was performed according to manufacturer's instructions and sample phospho-KDR concentrations were extrapolated using human phospho-KDR control (R&D Systems #841421) as a standard. Positive control wells (100% activity) contained VEGF165-stimulated, DMSO-treated cell lysates. Negative control wells (0% activity) contained non-stimulated cell lysates. IC50 values were calculated by nonlinear regression analysis using a 4-parameter logistic curve fit in ActivityBase XE (IDBS).

Chain of AXL (P30530 26-894): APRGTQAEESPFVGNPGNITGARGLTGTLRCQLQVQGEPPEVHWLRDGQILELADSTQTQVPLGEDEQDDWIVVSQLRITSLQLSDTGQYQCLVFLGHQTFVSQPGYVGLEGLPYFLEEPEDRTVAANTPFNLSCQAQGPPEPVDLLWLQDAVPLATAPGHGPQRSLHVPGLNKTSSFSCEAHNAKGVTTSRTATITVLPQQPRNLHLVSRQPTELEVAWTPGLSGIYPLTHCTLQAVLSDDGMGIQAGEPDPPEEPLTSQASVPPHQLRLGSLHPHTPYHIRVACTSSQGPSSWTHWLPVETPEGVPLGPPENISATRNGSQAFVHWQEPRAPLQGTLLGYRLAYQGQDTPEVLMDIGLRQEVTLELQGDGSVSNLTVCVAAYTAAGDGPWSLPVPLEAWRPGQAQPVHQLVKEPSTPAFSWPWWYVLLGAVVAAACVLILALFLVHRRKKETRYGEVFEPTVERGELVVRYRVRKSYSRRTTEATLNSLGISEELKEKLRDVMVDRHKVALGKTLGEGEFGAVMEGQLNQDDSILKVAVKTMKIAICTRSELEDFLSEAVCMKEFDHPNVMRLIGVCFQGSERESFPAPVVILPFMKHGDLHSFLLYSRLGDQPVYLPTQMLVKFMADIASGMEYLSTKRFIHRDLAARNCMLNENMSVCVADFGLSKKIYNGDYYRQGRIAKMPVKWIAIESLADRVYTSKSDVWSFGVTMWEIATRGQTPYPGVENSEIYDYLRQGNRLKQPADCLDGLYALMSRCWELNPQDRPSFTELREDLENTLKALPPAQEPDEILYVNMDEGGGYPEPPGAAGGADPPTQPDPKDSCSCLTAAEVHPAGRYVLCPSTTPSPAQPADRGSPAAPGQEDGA

| IC50 (AXL) [nM] | IC50 (Met) [nM] | IC50 (KDR) [nM] | Compound |
| --- | --- | --- | --- |
| > 300 | > 300 | > 300 | COc1cc2nccc(Oc3ncc(NC(=O)C4(C(=O)Nc5ccc(F)cc5)CC4)cc3F)c2nc1OCCCN1CCOCC1 [Compound 135, 1-N′-[5-Fluoro-6-[[7-methoxy-6-(3-morpholin-4-ylpropoxy)-1,5-naphthyridin-4-yl]oxy]pyridin-3-yl]-1-N-(4-fluorophenyl)cyclopropane-1,1-dicarboxamide] |
| > 300 | > 300 | > 300 | COCCc1noc(-c2cc3c(Oc4ncc(NC(=O)C5(C(=O)Nc6ccc(F)cc6)CC5)cc4F)ccnc3cc2OC)n1 [Compound 26, 1-N′-[5-Fluoro-6-[7-methoxy-6-[3-(2-methoxyethyl)-1,2,4-oxadiazol-5-yl]quinolin-4-yl]oxypyridin-3-yl]-1-N-(4-fluorophenyl)cyclopropane-1,1-dicarboxamide] |
| 100 to 300 | > 300 | > 300 | COc1cc2ncnc(Oc3ccc(NC(=O)C4(C(=O)Nc5ccc(F)cc5)CC4)cn3)c2nc1OC [Compound 145, 1-N′-[6-(6,7-Dimethoxypyrido[3,2-d]pyrimidin-4-yl)oxypyridin-3-yl]-1-N-(4-fluorophenyl)cyclopropane-1,1-dicarboxamide] |
| > 300 | > 300 | > 300 | COc1cc2nccc(Oc3ncc(NC(=O)C4(C(=O)Nc5ccc(F)cc5)CC4)cc3C)c2nc1OC [Compound 85, 1-N′-[6-[(6,7-Dimethoxy-1,5-naphthyridin-4-yl)oxy]-5-methylpyridin-3-yl]-1-N-(4-fluorophenyl)cyclopropane-1,1-dicarboxamide] |
| > 300 | > 300 | > 300 | CCc1noc(-c2cc3c(Oc4ncc(NC(=O)C5(C(=O)Nc6ccc(F)cc6)CC5)cc4F)ccnc3cc2OC)n1 [Compound 27, 1-N′-[6-[6-(3-Ethyl-1,2,4-oxadiazol-5-yl)-7-methoxyquinolin-4-yl]oxy-5-fluoropyridin-3-yl]-1-N-(4-fluorophenyl)cyclopropane-1,1-dicarboxamide] |
| 100 to 300 | 10 to 100 | > 300 | COCCOc1cc2nccc(Oc3ncc(NC(=O)C4(C(=O)Nc5ccc(F)cc5)CC4)cc3Cl)c2nc1OC [Compound 115, 1-N′-[5-Chloro-6-[[6-methoxy-7-(2-methoxyethoxy)-1,5-naphthyridin-4-yl]oxy]pyridin-3-yl]-1-N-(4-fluorophenyl)cyclopropane-1,1-dicarboxamide] |
| > 300 | > 300 | > 300 | O=C(Nc1ccc(F)cc1)C1(C(=O)Nc2cnc(Oc3ccnc4cc5c(nc34)OCCO5)c(Cl)c2)CC1 [Compound 104, 1-N′-[5-Chloro-6-(2,3-dihydro-[1,4]dioxino[2,3-b][1,5]naphthyridin-6-yloxy)pyridin-3-yl]-1-N-(4-fluorophenyl)cyclopropane-1,1-dicarboxamide] |
| > 300 | > 300 | > 300 | COCc1noc(-c2cc3c(Oc4ncc(NC(=O)C5(C(=O)Nc6ccc(F)cc6)CC5)cc4F)ccnc3cc2OC)n1 [Compound 25, 1-N′-[5-Fluoro-6-[7-methoxy-6-[3-(methoxymethyl)-1,2,4-oxadiazol-5-yl]quinolin-4-yl]oxypyridin-3-yl]-1-N-(4-fluorophenyl)cyclopropane-1,1-dicarboxamide] |
| > 300 | > 300 | > 300 | COc1cc2nccc(Oc3ncc(NC(=O)C4(C(=O)Nc5ccc(F)cc5)CC4)cc3C#N)c2nc1OC [Compound 84, 1-N′-[5-Cyano-6-[(6,7-dimethoxy-1,5-naphthyridin-4-yl)oxy]pyridin-3-yl]-1-N-(4-fluorophenyl)cyclopropane-1,1-dicarboxamide] |
| 10 to 100 | 10 to 100 | > 300 | CNC(=O)c1cc2c(Oc3ncc(NC(=O)C4(C(=O)Nc5ccc(F)cc5)CC4)cc3F)ccnc2cc1OCCO [Compound 44, 1-N′-[5-Fluoro-6-[7-(2-hydroxyethoxy)-6-(methylcarbamoyl)-quinolin-4-yl]oxypyridin-3-yl]-1-N-(4-fluorophenyl)cyclopropane-1,1-dicarboxamide] |
| > 300 | > 300 | > 300 | COc1nc2c(Oc3ncc(NC(=O)C4(C(=O)Nc5ccc(F)cc5)CC4)cc3F)ccnc2cc1O [Compound 121, 1-N′-[5-Fluoro-6-[(7-hydroxy-6-methoxy-1,5-naphthyridin-4-yl)oxy]pyridin-3-yl]-1-N-(4-fluorophenyl)cyclopropane-1,1-dicarboxamide] |
| 100 to 300 | 100 to 300 | > 300 | COCCOc1cc2nccc(Oc3ccc(NC(=O)C4(C(=O)Nc5ccc(F)cc5)CC4)cn3)c2nc1OC [Compound 114, 1-N-(4-Fluorophenyl)-1-N′-[6-[[6-methoxy-7-(2-methoxyethoxy)-1,5-naphthyridin-4-yl]oxy]pyridin-3-yl]cyclopropane-1,1-dicarboxamide] |
| 10 to 100 | > 300 | > 300 | COCCOc1cc2ncnc(Oc3ccc(NC(=O)C4(C(=O)Nc5ccc(F)cc5)CC4)cn3)c2nc1OC [Compound 156, 1-N-(4-Fluorophenyl)-1-N′-[6-[6-methoxy-7-(2-methoxyethoxy)pyrido[3,2-d]pyrimidin-4-yl]oxypyridin-3-yl]cyclopropane-1,1-dicarboxamide] |
| > 300 | > 300 | > 300 | COc1cc2nccc(Oc3ncc(NC(=O)C4(C(=O)Nc5ccc(F)cc5)CC4)cc3OC)c2nc1OC [Compound 92, 1-N′-[6-[(6,7-Dimethoxy-1,5-naphthyridin-4-yl)oxy]-5-methoxypyridin-3-yl]-1-N-(4-fluorophenyl)cyclopropane-1,1-dicarboxamide] |
| 100 to 300 | > 300 | > 300 | COc1cc(Oc2ccnc3cc(OC)c(OC)nc23)ncc1NC(=O)C1(C(=O)Nc2ccc(F)cc2)CC1 [Compound 88, 1-N′-[6-[(6,7-Dimethoxy-1,5-naphthyridin-4-yl)oxy]-4-methoxypyridin-3-yl]-1-N-(4-fluorophenyl)cyclopropane-1,1-dicarboxamide] |
| > 300 | > 300 | > 300 | O=C(Nc1ccc(F)cc1)C1(C(=O)Nc2ccc(Oc3ccnc4cc5c(nc34)OCCO5)nc2)CC1 [Compound 103, 1-N′-[6-(2,3-Dihydro-[1,4]dioxino[2,3-b][1,5]naphthyridin-6-yloxy)pyridin-3-yl]-1-N-(4-fluorophenyl)cyclopropane-1,1-dicarboxamide] |
